Test results reported in article PMC8880098, “Synthesis, Antibacterial Evaluation, and Computational Studies of a Diverse Set of Linezolid Conjugates” (Pharmaceuticals, 2022).
Values after ≈ are worked out from the molar mass of the structure shown. Where two headings read alike, the source gives them in different places.

How the values were obtained:
[1] = system: Pseudomonas aeruginosa ATCC 15692; set-up: method as in PMID 27025339; conditions: reference fluoroquinolones, cited from earlier work; for MIC (μmol), P. Aeruginosa (ATCC 15692): value in parentheses
[2] = system: Staphylococcus aureus ATCC 6538; set-up: method as in PMID 27025339; conditions: reference fluoroquinolones, cited from earlier work; for MIC (μmol), S. Aureus (ATCC 6538): value in parentheses
[3] = system: Pseudomonas aeruginosa ATCC 15692; experiment: Antibacterial MIC, microdilution susceptibility test (CLSI); type: cell-based
In short: (§1)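 Broth microdilution per CLSI in Mueller–Hinton broth. Inoculum ~2.5–3 × 10^4 cells/mL, mixed 1:1 with compound (DMSO stocks diluted in water), incubated 37 °C for 24 h, growth read as absorbance at 620 nm. MIC from dose–response on selected compounds, at least two experiments in triplicate.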

[4] = system: Escherichia coli ATCC 47076; experiment: as above; type: cell-based
In short: as §1

[5] = system: Staphylococcus aureus ATCC 6538; experiment: as above; type: cell-based; conditions: Staphylococcus aureus, ATCC6538, 24 h, Mueller–Hinton broth, 37 °C, 24 h; read-out: MIC, μg/mL ± SE, S. Aureus (ATCC 6538)
In short: as §1

[6] = system: Bacillus subtilis ATCC 6633; experiment: as above; type: cell-based; conditions: Bacillus subtilis, ATCC6633, 24 h, Mueller–Hinton broth, 37 °C, 24 h; read-out: MIC, μg/mL ± SE, B. Subtilis (ATCC 6633)
In short: as §1

[7] = system: Staphylococcus aureus ATCC 6538; experiment: microbe, parasite or virus in culture; set-up: species or system bacteria; Broth microdilution MIC in Mueller-Hinton broth, absorbance at 620 nm; conditions: ATCC6538, 24 h, read-out: Observed MIC, uM (S. aureus)
In short: (§2)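 Broth microdilution in Mueller–Hinton broth per CLSI, inoculum about 2.5–3 × 10^4 cells/mL mixed 1:1 with compound, 24 h at 37 °C. Growth read by absorbance at 620 nm; MIC from dose–response, at least two runs in triplicate.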

[8] = system: Bacillus subtilis ATCC 6633; experiment: microbe, parasite or virus in culture; set-up: species or system bacteria; Broth microdilution MIC in Mueller-Hinton broth, absorbance at 620 nm; conditions: ATCC6633, 24 h, read-out: Observed MIC, uM (B. subtilis)
In short: as §2

O=C(O)c1cn(C2CC2)c2cc(N3CCNCC3)c(F)cc2c1=O [Ciprofloxacin]
MIC, μg/mL ± SE, P. Aeruginosa (ATCC 15692) [1]: 4.8 ± 0.5 µg/mL (≈ 14.5 µM) | MIC (μmol), P. Aeruginosa (ATCC 15692) [1]: 14.5 µmol | MIC, μg/mL ± SE, S. Aureus (ATCC 6538) [2]: 1250.0 ± 9.6 µg/mL (≈ 3770 µM) | MIC (μmol), S. Aureus (ATCC 6538) [2]: 3772.4 µmol

O=C(CCCC[C@@H]1SC[C@@H]2NC(=O)N[C@@H]21)NC[C@H]1CN(c2ccc(N3CCOCC3)c(F)c2)C(=O)O1 [Compound 15, N-(((S)-3-(3-Fluoro-4-morpholinophenyl)-2-oxooxazolidin-5-yl)methyl)-5-((3aS, 4S, 6aR)-2-oxohexahydro-1H-thieno [3,4-d]imidazol-4-yl)pentanamide]
melting point: 222 to 224 °C | MIC ([3]; ATCC15692, Mueller–Hinton broth, 37 °C, 24 h, read-out: MIC, μg/mL ± SE, P. Aeruginosa (ATCC 15692)): 32 ± 0.3 µg/mL | MIC ([3]; ATCC15692, value in parentheses, read-out: MIC (μmol), P. Aeruginosa (ATCC 15692) (converted)): 61.3 µM | MIC ([4]; ATCC47076, Mueller–Hinton broth, 37 °C, 24 h, read-out: MIC, μg/mL ± SE, E. Coli (ATCC 47076)): 32 ± 0.7 µg/mL | MIC ([4]; ATCC47076, value in parentheses, read-out: MIC (μmol), E. Coli (ATCC 47076) (converted)): 61.3 µM | MIC [5]: 32 ± 0.4 µg/mL (≈ 61.3 µM) | MIC [6]: 32 ± 0.2 µg/mL (≈ 61.3 µM) | MIC [7]: 61.3 µM (≈ 32 µg/mL) | MIC [8]: 61.3 µM (≈ 32 µg/mL)

CCn1cc(C(=O)O)c(=O)c2cc(F)c(N3CCNCC3)cc21 [Norfloxacin]
MIC, μg/mL ± SE, P. Aeruginosa (ATCC 15692) [1]: 4.8 ± 0.2 µg/mL (≈ 15 µM) | MIC (μmol), P. Aeruginosa (ATCC 15692) [1]: 15.0 µmol | MIC, μg/mL ± SE, S. Aureus (ATCC 6538) [2]: 1250.0 ± 14.2 µg/mL (≈ 3910 µM) | MIC (μmol), S. Aureus (ATCC 6538) [2]: 3914.3 µmol
